{"source": "PubChem BioAssay (NCI)", "experiment_in_all_cases": "NCI tumour cell line growth inhibition, 48 h", "key": {"NCI-H522 lung": {"test_system": "NCI-H522 lung"}, "NCI/ADR-RES ovarian": {"test_system": "NCI/ADR-RES ovarian"}, "OVCAR-3 ovarian": {"test_system": "OVCAR-3 ovarian"}, "OVCAR-4 ovarian": {"test_system": "OVCAR-4 ovarian"}, "OVCAR-5 ovarian": {"test_system": "OVCAR-5 ovarian"}, "OVCAR-8 ovarian": {"test_system": "OVCAR-8 ovarian"}, "PC-3 prostate": {"test_system": "PC-3 prostate"}, "RPMI-8226 leukemia": {"test_system": "RPMI-8226 leukemia"}, "RXF 393 renal": {"test_system": "RXF 393 renal"}, "SF-268 CNS": {"test_system": "SF-268 CNS"}, "SF-295 CNS": {"test_system": "SF-295 CNS"}, "SF-539 CNS": {"test_system": "SF-539 CNS"}, "SK-MEL-2 melanoma": {"test_system": "SK-MEL-2 melanoma"}, "SK-MEL-28 melanoma": {"test_system": "SK-MEL-28 melanoma"}, "SK-MEL-5 melanoma": {"test_system": "SK-MEL-5 melanoma"}, "SK-OV-3 ovarian": {"test_system": "SK-OV-3 ovarian"}, "SN12C renal": {"test_system": "SN12C renal"}, "SNB-19 CNS": {"test_system": "SNB-19 CNS"}, "SNB-75 CNS": {"test_system": "SNB-75 CNS"}, "SR leukemia": {"test_system": "SR leukemia"}, "SW-620 colon": {"test_system": "SW-620 colon"}, "T-47D breast": {"test_system": "T-47D breast"}, "TK-10 renal": {"test_system": "TK-10 renal"}, "U251 CNS": {"test_system": "U251 CNS"}, "UACC-257 melanoma": {"test_system": "UACC-257 melanoma"}, "UACC-62 melanoma": {"test_system": "UACC-62 melanoma"}, "UO-31 renal": {"test_system": "UO-31 renal"}}, "note": "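Tested at 5 concentrations; 48 h exposure; 96-well plates; endpoints linearly interpolated, else capped at highest concentration. At the GI50, growth is halved. TGI marks complete inhibition of growth.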", "data": [{"smiles": "COc1ccc(-c2[nH]c3ccc(OC)cc3c2C=C(C#N)C#N)cc1", "values": [{"measurement": "TGI", "setting": "NCI-H522 lung", "result": "> 100", "unit": "µM"}, {"measurement": "GI50", "setting": "NCI/ADR-RES ovarian", "result": 0.389, "unit": "µM"}, {"measurement": "TGI", "setting": "NCI/ADR-RES ovarian", "result": "> 100", "unit": "µM"}, {"measurement": "GI50", "setting": "OVCAR-3 ovarian", "result": 0.364, "unit": "µM"}, {"measurement": "TGI", "setting": "OVCAR-3 ovarian", "result": 1.9, "unit": "µM"}, {"measurement": "GI50", "setting": "OVCAR-4 ovarian", "result": "> 100", "unit": "µM"}, {"measurement": "TGI", "setting": "OVCAR-4 ovarian", "result": "> 100", "unit": "µM"}, {"measurement": "GI50", "setting": "OVCAR-5 ovarian", "result": "> 100", "unit": "µM"}, {"measurement": "TGI", "setting": "OVCAR-5 ovarian", "result": "> 100", "unit": "µM"}, {"measurement": "GI50", "setting": "OVCAR-8 ovarian", "result": "> 100", "unit": "µM"}, {"measurement": "TGI", "setting": "OVCAR-8 ovarian", "result": "> 100", "unit": "µM"}, {"measurement": "GI50", "setting": "PC-3 prostate", "result": 0.342, "unit": "µM"}, {"measurement": "TGI", "setting": "PC-3 prostate", "result": "> 100", "unit": "µM"}, {"measurement": "GI50", "setting": "RPMI-8226 leukemia", "result": 2.5, "unit": "µM"}, {"measurement": "TGI", "setting": "RPMI-8226 leukemia", "result": "> 100", "unit": "µM"}, {"measurement": "GI50", "setting": "RXF 393 renal", "result": 5.48, "unit": "µM"}, {"measurement": "TGI", "setting": "RXF 393 renal", "result": "> 100", "unit": "µM"}, {"measurement": "GI50", "setting": "SF-268 CNS", "result": 1.67, "unit": "µM"}, {"measurement": "TGI", "setting": "SF-268 CNS", "result": "> 100", "unit": "µM"}, {"measurement": "GI50", "setting": "SF-295 CNS", "result": 0.306, "unit": "µM"}, {"measurement": "TGI", "setting": "SF-295 CNS", "result": "> 100", "unit": "µM"}, {"measurement": "GI50", "setting": "SF-539 CNS", "result": 1.32, "unit": "µM"}, {"measurement": "TGI", "setting": "SF-539 CNS", "result": "> 100", "unit": "µM"}, {"measurement": "GI50", "setting": "SK-MEL-2 melanoma", "result": 5.85, "unit": "µM"}, {"measurement": "TGI", "setting": "SK-MEL-2 melanoma", "result": "> 100", "unit": "µM"}, {"measurement": "GI50", "setting": "SK-MEL-28 melanoma", "result": 1.66, "unit": "µM"}, {"measurement": "TGI", "setting": "SK-MEL-28 melanoma", "result": "> 100", "unit": "µM"}, {"measurement": "GI50", "setting": "SK-MEL-5 melanoma", "result": 0.321, "unit": "µM"}, {"measurement": "TGI", "setting": "SK-MEL-5 melanoma", "result": "> 100", "unit": "µM"}, {"measurement": "GI50", "setting": "SK-OV-3 ovarian", "result": 0.731, "unit": "µM"}, {"measurement": "TGI", "setting": "SK-OV-3 ovarian", "result": "> 100", "unit": "µM"}, {"measurement": "GI50", "setting": "SN12C renal", "result": 15.9, "unit": "µM"}, {"measurement": "TGI", "setting": "SN12C renal", "result": "> 100", "unit": "µM"}, {"measurement": "GI50", "setting": "SNB-19 CNS", "result": "> 37", "unit": "µM"}, {"measurement": "TGI", "setting": "SNB-19 CNS", "result": "> 100", "unit": "µM"}, {"measurement": "GI50", "setting": "SNB-75 CNS", "result": 0.551, "unit": "µM"}, {"measurement": "TGI", "setting": "SNB-75 CNS", "result": 97.7, "unit": "µM"}, {"measurement": "GI50", "setting": "SR leukemia", "result": 0.0188, "unit": "µM"}, {"measurement": "TGI", "setting": "SR leukemia", "result": 0.116, "unit": "µM"}, {"measurement": "GI50", "setting": "SW-620 colon", "result": 0.568, "unit": "µM"}, {"measurement": "TGI", "setting": "SW-620 colon", "result": "> 100", "unit": "µM"}, {"measurement": "GI50", "setting": "T-47D breast", "result": 2.57, "unit": "µM"}, {"measurement": "TGI", "setting": "T-47D breast", "result": "> 100", "unit": "µM"}, {"measurement": "GI50", "setting": "TK-10 renal", "result": "> 100", "unit": "µM"}, {"measurement": "TGI", "setting": "TK-10 renal", "result": "> 100", "unit": "µM"}, {"measurement": "GI50", "setting": "U251 CNS", "result": 0.607, "unit": "µM"}, {"measurement": "TGI", "setting": "U251 CNS", "result": "> 100", "unit": "µM"}, {"measurement": "GI50", "setting": "UACC-257 melanoma", "result": "> 100", "unit": "µM"}, {"measurement": "TGI", "setting": "UACC-257 melanoma", "result": "> 100", "unit": "µM"}, {"measurement": "GI50", "setting": "UACC-62 melanoma", "result": 0.355, "unit": "µM"}, {"measurement": "TGI", "setting": "UACC-62 melanoma", "result": "> 100", "unit": "µM"}, {"measurement": "GI50", "setting": "UO-31 renal", "result": "> 100", "unit": "µM"}, {"measurement": "TGI", "setting": "UO-31 renal", "result": "> 100", "unit": "µM"}]}]}
